Tests used:
Human melanocortin (MC5) = biological target: T1, Human melanocortin (MC5) (Homo sapiens, UniProt P33032); assay: Radioligand binding, human melanocortin MC5 membranes, FlashPlate, [125I]-NDP-αMSH; conditions: compound at 10 μM, [125I]-NDP-αMSH
T1 construct: purchased Perkin Elmer Biosignal
In short: (§1)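 Cloned human receptor membranes were coated onto FlashPlate wells and incubated with radioligand and compound (added from a 0.5 mM DMSO daughter plate) for 1 hour at room temperature in the dark. Scintillation counting gave percent inhibition, with DMSO defining total and reference ligand defining non-specific binding.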

Human opioid (ORL1) = biological target: T2, Human opioid (ORL1) (Homo sapiens, UniProt P41146); assay: Radioligand binding, human opioid ORL1 membranes, FlashPlate, [125I]-Nociceptin; conditions: compound at 10 μM, [125I]-Nociceptin
T2 construct: purchased Perkin Elmer Biosignal
In short: as §1

[1] = biological target: T3, Human melanin-concentrating hormone (MCH1) (Homo sapiens, UniProt Q99705); assay: Radioligand binding, human melanin-concentrating hormone MCH1 membranes, FlashPlate, [125I]-S36057; conditions: compound at 10 μM
T3 construct: purchased Perkin Elmer Biosignal
In short: as §1

[2] = biological target: T4, Human neuropeptide Y (NPY-Y1) (Homo sapiens, UniProt P25929); assay: Radioligand binding, human neuropeptide Y NPY-Y1 membranes, FlashPlate, [125I]-PYY; conditions: compound at 10 μM, [125I]-PYY
T4 construct: purchased Perkin Elmer Biosignal
T4 sequence (P25929 1-384): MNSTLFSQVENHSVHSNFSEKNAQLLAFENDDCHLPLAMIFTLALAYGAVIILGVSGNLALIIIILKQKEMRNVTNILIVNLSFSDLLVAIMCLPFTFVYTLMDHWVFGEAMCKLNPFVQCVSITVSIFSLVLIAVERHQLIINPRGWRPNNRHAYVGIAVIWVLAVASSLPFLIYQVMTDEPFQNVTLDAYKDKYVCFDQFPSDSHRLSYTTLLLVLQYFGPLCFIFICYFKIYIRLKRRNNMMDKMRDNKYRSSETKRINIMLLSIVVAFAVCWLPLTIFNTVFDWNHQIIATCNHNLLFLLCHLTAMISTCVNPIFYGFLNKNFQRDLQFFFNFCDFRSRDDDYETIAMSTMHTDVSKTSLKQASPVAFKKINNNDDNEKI
In short: as §1

Human δ-opioid (DOP) = biological target: T5, Human δ-opioid (DOP) (Homo sapiens, UniProt P41143); assay: Radioligand binding, human δ-opioid (DOP) membranes, FlashPlate, [3H]-Bremazocine; conditions: compound at 10 μM, [3H]-Bremazocine
T5 construct: purchased Perkin Elmer Biosignal
In short: as §1

Mouse urotensin (mUR2) = biological target: T6, Mouse urotensin (mUR2) (Mus musculus, UniProt Q8VIH9); assay: Radioligand binding, mouse urotensin mUR2 membranes, FlashPlate, [125I]-Urotensin II; conditions: compound at 10 μM, [125I]-Urotensin II
T6 construct: purchased Perkin Elmer Biosignal
T6 sequence (Q8VIH9 1-385): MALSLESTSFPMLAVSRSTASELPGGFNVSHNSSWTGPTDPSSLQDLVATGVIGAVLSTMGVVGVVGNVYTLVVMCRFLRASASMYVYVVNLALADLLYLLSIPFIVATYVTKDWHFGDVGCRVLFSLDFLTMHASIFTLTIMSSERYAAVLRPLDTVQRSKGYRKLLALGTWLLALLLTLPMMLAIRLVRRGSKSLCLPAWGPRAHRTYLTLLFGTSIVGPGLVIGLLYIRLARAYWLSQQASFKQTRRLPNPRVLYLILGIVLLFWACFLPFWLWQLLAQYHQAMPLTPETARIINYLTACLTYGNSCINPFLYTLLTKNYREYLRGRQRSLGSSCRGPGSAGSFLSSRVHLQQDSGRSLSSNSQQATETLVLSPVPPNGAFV
In short: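 Cloned mouse urotensin (mUR2) receptor membranes from Perkin Elmer Biosignal were immobilized in FlashPlate microplates using a proprietary coating. Each well got 19.5 μl buffer, then 0.5 μl of DMSO, reference ligand, or compound. Adding 5 μl of [125I]-Urotensin II, diluted to 5× final concentration in binding buffer, started binding. Plates were sealed with TopSeal-A and incubated 1 hour at room temperature in the dark. Wells were counted for 30 seconds each on a TopCount after a 60-second delay, and percentage inhibition was calculated.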

Human Melanocortin (MC4) = biological target: T7, Human Melanocortin (MC4) (Homo sapiens, UniProt P32245); assay: Radioligand binding, human melanocortin MC4 membranes, FlashPlate, [125I]-NDP-αMSH; conditions: compound at 10 μM, [125I]-NDP-αMSH
T7 construct: purchased Perkin Elmer Biosignal
In short: as §1

Human κ-Opioid (KOP) = biological target: T8, Human κ-Opioid (KOP) (Homo sapiens, UniProt P41145); assay: Radioligand binding, human κ-opioid (KOP) membranes, filtration, [3H]-Diprenorphine; conditions: compound at 10 μM, [3H]-Diprenorphine
T8 construct: purchased Perkin Elmer Biosignal
In short: (§2)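 Percent inhibition of radioligand binding measured on recombinant human membranes: NK1 with [125I]-Substance P, KOP with [3H]-Diprenorphine. Incubation 1 h at room temperature, then harvest onto 0.3% PEI-soaked filters, cold Tris-HCl pH 7.4 washes and scintillation counting; non-specific binding from reference ligand wells.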

Human μ-opioid (MOP) = biological target: T9, Human μ-opioid (MOP) (Homo sapiens, UniProt P35372); assay: Radioligand binding, human μ-opioid (MOP) membranes, FlashPlate, [3H]-Naloxone; conditions: compound at 10 μM, [3H]-Naloxone
T9 construct: purchased Perkin Elmer Biosignal
In short: as §1

Human neurokinin (NK1) = biological target: T10, Human neurokinin (NK1) (Homo sapiens, UniProt P25103); assay: Radioligand binding, human neurokinin NK1 membranes, filtration, [125I]-Substance P; conditions: compound at 10 μM, [125I]-Substance P
T10 construct: purchased Perkin Elmer Biosignal
In short: as §2

Human Melanocortin (MC3) = biological target: T11, Human Melanocortin (MC3) (Homo sapiens, UniProt P41968); assay: Radioligand binding, human melanocortin MC3 membranes, FlashPlate, [125I]-NDP-αMSH; conditions: compound at 10 μM, [125I]-NDP-αMSH
T11 construct: purchased Perkin Elmer Biosignal
In short: as §1

T7 sequence (P32245 whole entry): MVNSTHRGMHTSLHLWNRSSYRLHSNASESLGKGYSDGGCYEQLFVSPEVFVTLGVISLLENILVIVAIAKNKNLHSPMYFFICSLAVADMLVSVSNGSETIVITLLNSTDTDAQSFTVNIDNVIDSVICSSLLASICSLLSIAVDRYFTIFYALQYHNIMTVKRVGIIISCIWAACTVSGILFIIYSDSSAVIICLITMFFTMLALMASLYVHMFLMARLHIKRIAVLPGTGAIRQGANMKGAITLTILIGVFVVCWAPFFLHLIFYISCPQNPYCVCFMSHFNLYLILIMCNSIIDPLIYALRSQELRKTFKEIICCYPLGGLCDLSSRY
T8 sequence (P41145 whole entry): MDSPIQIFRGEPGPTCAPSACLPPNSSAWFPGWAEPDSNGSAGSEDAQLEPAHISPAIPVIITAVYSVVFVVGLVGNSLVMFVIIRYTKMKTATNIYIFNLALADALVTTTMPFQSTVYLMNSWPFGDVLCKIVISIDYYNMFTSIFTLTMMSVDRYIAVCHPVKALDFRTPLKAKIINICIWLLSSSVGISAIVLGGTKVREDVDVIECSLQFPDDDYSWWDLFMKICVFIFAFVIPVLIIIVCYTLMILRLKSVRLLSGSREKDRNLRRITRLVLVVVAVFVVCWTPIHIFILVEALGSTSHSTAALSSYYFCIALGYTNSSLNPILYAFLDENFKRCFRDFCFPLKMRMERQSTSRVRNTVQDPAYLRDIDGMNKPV
T11 sequence (P41968 whole entry): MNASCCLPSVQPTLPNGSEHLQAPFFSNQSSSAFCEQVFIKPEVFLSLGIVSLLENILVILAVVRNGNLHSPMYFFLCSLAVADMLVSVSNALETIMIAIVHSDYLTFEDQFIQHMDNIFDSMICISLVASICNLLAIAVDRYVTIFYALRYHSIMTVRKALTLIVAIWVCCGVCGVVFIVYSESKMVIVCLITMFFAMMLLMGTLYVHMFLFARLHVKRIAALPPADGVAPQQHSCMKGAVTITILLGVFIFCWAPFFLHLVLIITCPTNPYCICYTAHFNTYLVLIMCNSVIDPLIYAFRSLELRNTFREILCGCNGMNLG
T1 sequence (P33032 whole entry): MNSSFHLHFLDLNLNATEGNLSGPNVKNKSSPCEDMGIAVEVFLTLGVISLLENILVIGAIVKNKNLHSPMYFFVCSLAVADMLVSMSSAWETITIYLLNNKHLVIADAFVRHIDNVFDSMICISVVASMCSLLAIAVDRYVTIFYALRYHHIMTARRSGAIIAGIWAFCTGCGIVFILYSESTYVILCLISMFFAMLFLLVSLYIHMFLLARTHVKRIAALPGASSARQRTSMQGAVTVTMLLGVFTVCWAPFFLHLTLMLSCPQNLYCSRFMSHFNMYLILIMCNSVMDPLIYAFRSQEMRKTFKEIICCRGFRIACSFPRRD
T2 sequence (P41146 whole entry): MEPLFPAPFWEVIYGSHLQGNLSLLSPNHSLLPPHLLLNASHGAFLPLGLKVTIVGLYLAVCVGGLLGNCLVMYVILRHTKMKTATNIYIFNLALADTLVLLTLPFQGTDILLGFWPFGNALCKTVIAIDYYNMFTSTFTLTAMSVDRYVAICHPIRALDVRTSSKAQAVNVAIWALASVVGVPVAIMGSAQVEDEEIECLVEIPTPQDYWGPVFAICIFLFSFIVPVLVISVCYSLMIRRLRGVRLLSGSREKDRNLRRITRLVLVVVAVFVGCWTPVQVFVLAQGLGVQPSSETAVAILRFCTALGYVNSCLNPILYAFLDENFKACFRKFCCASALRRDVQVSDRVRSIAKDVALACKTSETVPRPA
T3 sequence (Q99705 whole entry): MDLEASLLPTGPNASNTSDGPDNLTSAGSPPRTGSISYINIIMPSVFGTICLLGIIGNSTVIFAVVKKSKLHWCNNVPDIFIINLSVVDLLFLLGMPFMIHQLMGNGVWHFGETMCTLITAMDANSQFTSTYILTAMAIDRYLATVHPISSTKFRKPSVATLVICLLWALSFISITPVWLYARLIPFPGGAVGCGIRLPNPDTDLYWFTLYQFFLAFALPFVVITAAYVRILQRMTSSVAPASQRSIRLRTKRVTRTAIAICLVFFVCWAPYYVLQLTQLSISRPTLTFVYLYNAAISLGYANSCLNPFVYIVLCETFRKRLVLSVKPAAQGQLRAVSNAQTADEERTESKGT
T9 sequence (P35372 whole entry): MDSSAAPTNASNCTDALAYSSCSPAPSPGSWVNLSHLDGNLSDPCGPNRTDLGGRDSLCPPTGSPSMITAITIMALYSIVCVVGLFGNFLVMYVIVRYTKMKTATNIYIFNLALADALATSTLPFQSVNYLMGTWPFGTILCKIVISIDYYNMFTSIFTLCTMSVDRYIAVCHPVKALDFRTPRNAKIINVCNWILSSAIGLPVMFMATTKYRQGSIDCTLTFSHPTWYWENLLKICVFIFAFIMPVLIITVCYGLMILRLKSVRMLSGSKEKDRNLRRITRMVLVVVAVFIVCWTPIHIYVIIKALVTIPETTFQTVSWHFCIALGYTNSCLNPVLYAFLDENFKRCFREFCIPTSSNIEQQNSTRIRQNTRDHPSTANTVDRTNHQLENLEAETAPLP
T10 sequence (P25103 whole entry): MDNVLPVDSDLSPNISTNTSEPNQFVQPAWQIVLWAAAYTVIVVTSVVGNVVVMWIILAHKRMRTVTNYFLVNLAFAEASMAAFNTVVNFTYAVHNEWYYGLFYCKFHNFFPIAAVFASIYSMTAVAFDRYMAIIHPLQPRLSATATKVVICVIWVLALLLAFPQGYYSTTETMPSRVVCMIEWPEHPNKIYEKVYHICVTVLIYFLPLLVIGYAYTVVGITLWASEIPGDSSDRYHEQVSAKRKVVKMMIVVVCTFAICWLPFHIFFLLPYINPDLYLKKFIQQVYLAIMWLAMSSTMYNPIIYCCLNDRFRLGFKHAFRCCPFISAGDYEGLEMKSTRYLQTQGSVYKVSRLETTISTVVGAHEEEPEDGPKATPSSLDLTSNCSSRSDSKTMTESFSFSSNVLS
T5 sequence (P41143 whole entry): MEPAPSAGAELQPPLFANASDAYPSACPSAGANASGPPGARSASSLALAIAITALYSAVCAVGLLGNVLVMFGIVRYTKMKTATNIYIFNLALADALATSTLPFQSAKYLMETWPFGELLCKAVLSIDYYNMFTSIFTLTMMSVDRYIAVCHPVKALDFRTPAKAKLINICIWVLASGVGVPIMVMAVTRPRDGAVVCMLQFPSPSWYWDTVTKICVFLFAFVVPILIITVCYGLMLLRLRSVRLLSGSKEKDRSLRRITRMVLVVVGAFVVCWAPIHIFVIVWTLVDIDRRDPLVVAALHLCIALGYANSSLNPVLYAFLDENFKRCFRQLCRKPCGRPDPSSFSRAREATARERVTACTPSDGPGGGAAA

Compound: CSC1OC(COCc2ccc3ccccc3c2)C(O)C(OCc2ccccc2)C1NC(=O)CCCN (stereo not shown) [compound 263]
- A5: inhibition of radioligand binding (Human melanocortin (MC5); FlashPlate): − (“−” indicates less than 50% inhibition at 10 μM)
- A10: inhibition of radioligand binding (Human opioid (ORL1); FlashPlate): − (“−” indicates less than 50% inhibition at 10 μM)
- A6: inhibition of radioligand binding ([1]; [125I]-S36057, FlashPlate): − (“−” indicates less than 50% inhibition at 10 μM)
- A9: inhibition of radioligand binding ([2]; FlashPlate): − (“−” indicates less than 50% inhibition at 10 μM)
- A1: inhibition of radioligand binding (Human δ-opioid (DOP); FlashPlate): − (“−” indicates less than 50% inhibition at 10 μM)
- A11: inhibition of radioligand binding (Mouse urotensin (mUR2); FlashPlate): − (“−” indicates less than 50% inhibition at 10 μM)
- A4: inhibition of radioligand binding (Human Melanocortin (MC4); FlashPlate): − (“−” indicates less than 50% inhibition at 10 μM)
- A2: inhibition of radioligand binding (Human κ-Opioid (KOP); filtration): − (“−” indicates less than 50% inhibition at 10 μM)
- A7: inhibition of radioligand binding (Human μ-opioid (MOP); FlashPlate): − (“−” indicates less than 50% inhibition at 10 μM)
- A8: inhibition of radioligand binding (Human neurokinin (NK1); filtration): + (“+” indicates greater than 50% inhibition at 10 μM)
- A3: inhibition of radioligand binding (Human Melanocortin (MC3); FlashPlate): − (“−” indicates less than 50% inhibition at 10 μM)

Compound: NCCC(=O)NC1C(OCc2ccc(Cl)cc2)OC(COCc2ccccc2)C(O)C1OCc1ccc2ccccc2c1 (single isomer, unassigned) [compound 479]
- A5: inhibition of radioligand binding, human melanocortin (MC5) (Human melanocortin (MC5); 10 µM): − (“−” indicates less than 50% inhibition at 10 μM)
- A10: inhibition of radioligand binding, human opioid (ORL1) (Human opioid (ORL1)): − (“−” indicates less than 50% inhibition at 10 μM)
- A6: inhibition of radioligand binding, human melanin-concentrating hormone (MCH1) ([1]; [125I]-S36057, 10 µM): − (“−” indicates less than 50% inhibition at 10 μM)
- A9: inhibition of radioligand binding, human neuropeptide Y (NPY-Y1) [2]: − (“−” indicates less than 50% inhibition at 10 μM)
- A1: inhibition of radioligand binding, human δ-opioid (DOP) (Human δ-opioid (DOP)): − (“−” indicates less than 50% inhibition at 10 μM)
- A11: inhibition of radioligand binding, mouse urotensin (mUR2) (Mouse urotensin (mUR2)): − (“−” indicates less than 50% inhibition at 10 μM)
- A4: inhibition of radioligand binding, human melanocortin (MC4) (Human Melanocortin (MC4); 10 µM): − (“−” indicates less than 50% inhibition at 10 μM)
- A2: inhibition of radioligand binding, human κ-opioid (KOP) (Human κ-Opioid (KOP)): − (“−” indicates less than 50% inhibition at 10 μM)
- A7: inhibition of radioligand binding, human μ-opioid (MOP) (Human μ-opioid (MOP); 10 µM): − (“−” indicates less than 50% inhibition at 10 μM)
- A8: inhibition of radioligand binding, human neurokinin (NK1) (Human neurokinin (NK1)): + (“+” indicates greater than 50% inhibition at 10 μM)
- A3: inhibition of radioligand binding, human melanocortin (MC3) (Human Melanocortin (MC3)): − (“−” indicates less than 50% inhibition at 10 μM)

Compound: CO[C@H]1[C@H](O)[C@@H](COCc2ccc(-c3ccccc3)cc2)OC(OCc2ccc(Cl)cc2)[C@@H]1NC(=O)CCNC(=N)N (stereo partly shown) [compound 94]
- A5 radioligand binding, percentage inhibition (Human melanocortin (MC5)): + (“+” indicates greater than 50% inhibition at 10 μM)
- A10 radioligand binding, percentage inhibition (Human opioid (ORL1)): + (“+” indicates greater than 50% inhibition at 10 μM)
- A6 radioligand binding, percentage inhibition ([1]; [125I]-S36057): + (“+” indicates greater than 50% inhibition at 10 μM)
- A9 radioligand binding, percentage inhibition [2]: + (“+” indicates greater than 50% inhibition at 10 μM)
- A1 radioligand binding, percentage inhibition (Human δ-opioid (DOP)): − (“−” indicates less than 50% inhibition at 10 μM)
- A11 radioligand binding, percentage inhibition (Mouse urotensin (mUR2)): − (“−” indicates less than 50% inhibition at 10 μM)
- A4 radioligand binding, percentage inhibition (Human Melanocortin (MC4)): + (“+” indicates greater than 50% inhibition at 10 μM)
- A2 radioligand binding, percentage inhibition (Human κ-Opioid (KOP)): − (“−” indicates less than 50% inhibition at 10 μM)
- A7 radioligand binding, percentage inhibition (Human μ-opioid (MOP)): − (“−” indicates less than 50% inhibition at 10 μM)
- A8 radioligand binding, percentage inhibition (Human neurokinin (NK1)): + (“+” indicates greater than 50% inhibition at 10 μM)
- A3 radioligand binding, percentage inhibition (Human Melanocortin (MC3)): + (“+” indicates greater than 50% inhibition at 10 μM)

Compound: CO[C@H]1[C@H](O)[C@@H](COCc2cccc(O)c2)OC(OCc2ccc(Cl)cc2)[C@@H]1NC(=O)CCCN (stereo partly shown) [compound 156]
- A5 radioligand binding, percentage inhibition (Human melanocortin (MC5)): + (“+” indicates greater than 50% inhibition at 10 μM)
- A10 radioligand binding, percentage inhibition (Human opioid (ORL1)): − (“−” indicates less than 50% inhibition at 10 μM)
- A6 radioligand binding, percentage inhibition ([1]; [125I]-S36057): − (“−” indicates less than 50% inhibition at 10 μM)
- A9 radioligand binding, percentage inhibition [2]: − (“−” indicates less than 50% inhibition at 10 μM)
- A1 radioligand binding, percentage inhibition (Human δ-opioid (DOP)): − (“−” indicates less than 50% inhibition at 10 μM)
- A11 radioligand binding, percentage inhibition (Mouse urotensin (mUR2)): − (“−” indicates less than 50% inhibition at 10 μM)
- A4 radioligand binding, percentage inhibition (Human Melanocortin (MC4)): − (“−” indicates less than 50% inhibition at 10 μM)
- A2 radioligand binding, percentage inhibition (Human κ-Opioid (KOP)): − (“−” indicates less than 50% inhibition at 10 μM)
- A7 radioligand binding, percentage inhibition (Human μ-opioid (MOP)): − (“−” indicates less than 50% inhibition at 10 μM)
- A8 radioligand binding, percentage inhibition (Human neurokinin (NK1)): + (“+” indicates greater than 50% inhibition at 10 μM)
- A3 radioligand binding, percentage inhibition (Human Melanocortin (MC3)): − (“−” indicates less than 50% inhibition at 10 μM)

Compound: NCCC(=O)N[C@H]1C(OCc2ccc3ccccc3c2)O[C@H](COCc2ccc3ccccc3c2)[C@@H](O)[C@@H]1OCc1ccc2ccccc2c1 (stereo partly shown) [compound 443]
- A5: inhibition of radioligand binding (Human melanocortin (MC5); human MC5 membranes): + (“+” indicates greater than 50% inhibition at 10 μM)
- A10: inhibition of radioligand binding (Human opioid (ORL1); human ORL1 membranes): + (“+” indicates greater than 50% inhibition at 10 μM)
- A6: inhibition of radioligand binding ([1]; [125I]-S36057, human MCH1 membranes): + (“+” indicates greater than 50% inhibition at 10 μM)
- A9: inhibition of radioligand binding ([2]; human NPY-Y1 membranes): − (“−” indicates less than 50% inhibition at 10 μM)
- A1: inhibition of radioligand binding (Human δ-opioid (DOP); human DOP membranes): − (“−” indicates less than 50% inhibition at 10 μM)
- A11: inhibition of radioligand binding (Mouse urotensin (mUR2); mouse mUR2 membranes): − (“−” indicates less than 50% inhibition at 10 μM)
- A4: inhibition of radioligand binding (Human Melanocortin (MC4); human MC4 membranes): + (“+” indicates greater than 50% inhibition at 10 μM)
- A2: inhibition of radioligand binding (Human κ-Opioid (KOP); human KOP membranes): − (“−” indicates less than 50% inhibition at 10 μM)
- A7: inhibition of radioligand binding (Human μ-opioid (MOP); human MOP membranes): − (“−” indicates less than 50% inhibition at 10 μM)
- A8: inhibition of radioligand binding (Human neurokinin (NK1); human NK1 membranes): + (“+” indicates greater than 50% inhibition at 10 μM)
- A3: inhibition of radioligand binding (Human Melanocortin (MC3); human MC3 membranes): + (“+” indicates greater than 50% inhibition at 10 μM)

— patent US20080009418A1, “Selective Inhibitors” (Alchemia LTD., priority 2004, published 2008)
